# Test results: article PMC5602130, “Food and Sex-Related Impacts on the Pharmacokinetics of a Single-Dose of Ginsenoside Compound K in Healthy Subjects” (Frontiers in Pharmacology, 2017)
# Marks after values point to notes of the source that are not given here.
# What was measured:
# [1] = Food-effect trial: cumulative excretion rate from urine (0-48 h); type: in vivo, human; details: single oral 200 mg CK
# Protocol: The food-effect trial was an open-label, randomized, two-period, two-treatment crossover trial, carried out from 15 January to 31 March 2015. Subjects (n = 24) were admitted to the clinical facility (Center of Clinical Pharmacology, the Third Xiangya Hospital, Central South University, Changsha, China) and randomized to receive a single 200 mg oral dose of Ginsenoside CK Tablets (4 × 50 mg tablets) either after a 10 h-fasting period or within 30 min after beginning the consumption of a recommended high-fat, high calorie breakfast (150 calories of protein, 250 calories of carbohydrates, 500 to 600 calories of fat; total calories approximately 800–1,000). Tablets were administered with 250 mL of water, to each subject, in each treatment period. Drinking was prohibited for 2 h before and after medication. Apart from this, the amount and time of drinking were not strictly controlled. Subjects had unified, standard meals 4 and 10 h after drug administration. The alternate treatment was conducted after a 14-day washout period. Urine samples were collected 0–24 and 24–48 h after the administration and the volumes were measured immediately after collection. We preserved 8 mL in centrifuge tube for PK assessment, which were stored at −70°C before analysis. Descriptive statistics of PK parameters were calculated using established non-compartmental methods, utilizing the WinNonLin version 6.1 software (Pharsight Corporation, USA). The PK parameters determined for each participant included apparent terminal half-life (t1/2), maximum plasma concentration (Cmax), time to Cmax (tmax), area under the plasma concentration-time curve from the time of administration up to the last time point with a measurable concentration post-dose (AUClast), AUC extrapolated to infinity (AUCinf), apparent volume of distribution (V/F), apparent plasma clearance (CL/F) after extravascular administration, mean residence time (MRTlast and MRTinf), and the cumulative excretion rate from urine. The t1/2 was estimated as (ln2)/K, where K represented the slope of the terminal phase of plasma concentration-time profile and was assessed with a weighting factor of 1, using least squares (log-linear regression of at least three data points). The Cmax and tmax were obtained from experimental observations. The values of AUC were calculated using conventional trapezoidal and log-trapezoidal methods and the extrapolated area (Rowland and Tozer, [1995]). CL/F and V/F were calculated as dose/AUCinf and (CL/F)/K, respectively. MRT was calculated as MRT = AUMC/AUC, where AUMC is the area under the first moment curve. The cumulative excretion rate was calculated as the amount of unchanged drug over a time interval in the urine divided by dose, and was expressed as a percentage. The processing of urine samples was similar to that of plasma samples. […] For QC samples containing 2.00, 50.10, or 801.60 ng·mL^−1 CK were prepared using homogenic human urine with the mean bias ranged from −5.54 to 3.56%, while the CVs ranged from 1.38 to 4.89%.
# [2] = Food-effect trial: safety assessments (adverse events, vital signs, ECG, laboratory tests); type: in vivo, human
# Protocol: All available information on the study participants was included in the summaries of safety assessments, and must be recorded on the case-report form by investigators. The safety assessment took place throughout the project, and it included continuous observation of adverse events (AEs), monitoring of vital signs, 12-lead ECGs, hematological and biochemical analyses, and urinalysis. Specifically, the monitoring began the night before drug administration (at least 10 h), when subjects were admitted to the clinical facility, and continued for 96 h after dosing. ECGs were recorded prior to the administration and 1, 4, 12, 24, 48, 72, and 96 h after the administration of CK, as well as during physical examinations before and after the trial. Apart from investigators' review, data were also obtained from subjects by recounting or narrating themselves. Subsequently, AEs were classified by intensity into mild, moderate, and severe. A second classification of AEs, based on the relationship of AEs to the test drug, was performed, dividing them into positive, probable, possible, remote, or unrelated.
# [3] = Early clinical trial: sex differences of ginsenoside compound K pharmacokinetics (Supplementary Table 1); details: human, in vivo; for Cmax: n = 12
# Protocol: Therefore, a secondary purpose of this trial is to investigate whether there are any differences in the pharmacokinetics of CK between males and females, and whether the findings are consistent with what was previously observed. This report described an open-label, single-center trial, designed as a two-period crossover study, performed on healthy Chinese subjects (n = 24) randomized to either the fasting overnight (FO) or the high-fat (HF) meal group, before receiving a single 200 mg dose of Ginsenoside CK Tablets. Consequently, this study also provides evidence for dosing regimens, for late-stage clinical studies and clinical applications. Supplementary Table 1. Sex differences of ginsenoside compound K in human (n = 12).
# [4] = Abnormal urine routine, possible related
# [5] = Elevated creatine kinase, possible related
# [6] = Elevated direct bilirubin, probable related
# [7] = Elevated triglycerides, possible related
# [8] = Upper respiratory tract infection, possible related
compound,measurement,setting,value
"CC(C)=CCCC(C)(OC1OC(CO)C(O)C(O)C1O)C1CCC2(C)C1C(O)CC1C3(C)CCC(O)C(C)(C)C3CCC12C [CK, 20-O-beta-D-glucopyranosyl-20(S)-protopanaxadiol]",Cumulative excretion rate,"[1]; FO, female",0.083 ± 0.049%
same,Cumulative excretion rate,"[1]; FO, male",0.037 ± 0.029%
same,Cumulative excretion rate,"[1]; HF, all subjects",0.020 ± 0.015%
same,Cumulative excretion rate,"[1]; HF, female",0.019 ± 0.070%
same,Cumulative excretion rate,"[1]; HF, male",0.022 ± 0.020%
same,Cumulative excretion rate,"[1]; unchanged drug / dose, FO, all subjects",0.060 ± 0.046%
same,Adverse events: Number of cases,[2]; [4],1^c
same,Adverse events: Percentage,[2]; [4],4.2%
same,Adverse events: Number of cases,"[2]; Bellyache, positive related",3^a
same,Adverse events: Percentage,"[2]; Bellyache, positive related",12.5%
same,Adverse events: Number of cases,"[2]; Diarrhea, probable related",1^b
same,Adverse events: Percentage,"[2]; Diarrhea, probable related",4.2%
same,Adverse events: Number of cases,[2]; [5],3^c
same,Adverse events: Percentage,[2]; [5],12.5%
same,Adverse events: Number of cases,[2]; [6],1^b
same,Adverse events: Percentage,[2]; [6],4.2%
same,Adverse events: Number of cases,[2]; [7],3^c
same,Adverse events: Percentage,[2]; [7],12.5%
same,"Incidence of AEs classified as positive, probable and possible in relation to the test drug",[2]; FO regimen,55.6%
same,"Incidence of AEs classified as positive, probable and possible in relation to the test drug",[2]; HF regimen,44.4%
same,Adverse events: Number of cases,"[2]; Hematuria, possible related",1^c
same,Adverse events: Percentage,"[2]; Hematuria, possible related",4.2%
same,Adverse events: Number of cases,"[2]; Nausea, probable related",1^b
same,Adverse events: Percentage,"[2]; Nausea, probable related",4.2%
same,Adverse events: Number of cases,[2]; [8],1^c
same,Adverse events: Percentage,[2]; [8],4.2%
same,Adverse events: Percentage,"[2]; Watery stool, positive related",16.7%
same,Adverse events: Number of cases,"[2]; Watery stool, positive related to ginsenoside compound K, 24 subjects",4^a
same,Intensity of AEs,[2]; all AEs,mild
same,Instances of AEs recorded,[2]; both treatments,19
same,Number of subjects with AEs,[2]; of 24 subjects,11
same,Subjects with AEs (percentage),"[2]; of 24 subjects, both treatments",45.8%
same,"Abnormalities in physical examination, vital signs, ECGs, or standard clinical laboratory test results",[2]; single 200 mg dose,not associated with any clinically significant abnormalities
same,AUC(0-inf),[3]; female,4670 ± 2140 ng·h/mL
same,AUC(0-t),[3]; female,4490 ± 2030 ng·h/mL
same,Tmax,[3]; female,2.58 ± 0.67 h
same,half-life,[3]; female,5.66 ± 2.04 h
same,Cmax,[3]; Female,873 ± 427 ng/mL
same,Cmax,[3]; Male,601 ± 183 ng/mL
same,AUC(0-inf),[3]; male,3680 ± 1360 ng·h/mL
same,AUC(0-t),[3]; male,3600 ± 1320 ng·h/mL
same,Tmax,[3]; male,3.19 ± 1.25 h
same,half-life,[3]; male,4.15 ± 1.9 h
